Molecules are shown by their SMILES. Where only a bound is given, the exact number is not on record here.

Sequence of recombinant human Nav1.7 (Q15858 whole entry): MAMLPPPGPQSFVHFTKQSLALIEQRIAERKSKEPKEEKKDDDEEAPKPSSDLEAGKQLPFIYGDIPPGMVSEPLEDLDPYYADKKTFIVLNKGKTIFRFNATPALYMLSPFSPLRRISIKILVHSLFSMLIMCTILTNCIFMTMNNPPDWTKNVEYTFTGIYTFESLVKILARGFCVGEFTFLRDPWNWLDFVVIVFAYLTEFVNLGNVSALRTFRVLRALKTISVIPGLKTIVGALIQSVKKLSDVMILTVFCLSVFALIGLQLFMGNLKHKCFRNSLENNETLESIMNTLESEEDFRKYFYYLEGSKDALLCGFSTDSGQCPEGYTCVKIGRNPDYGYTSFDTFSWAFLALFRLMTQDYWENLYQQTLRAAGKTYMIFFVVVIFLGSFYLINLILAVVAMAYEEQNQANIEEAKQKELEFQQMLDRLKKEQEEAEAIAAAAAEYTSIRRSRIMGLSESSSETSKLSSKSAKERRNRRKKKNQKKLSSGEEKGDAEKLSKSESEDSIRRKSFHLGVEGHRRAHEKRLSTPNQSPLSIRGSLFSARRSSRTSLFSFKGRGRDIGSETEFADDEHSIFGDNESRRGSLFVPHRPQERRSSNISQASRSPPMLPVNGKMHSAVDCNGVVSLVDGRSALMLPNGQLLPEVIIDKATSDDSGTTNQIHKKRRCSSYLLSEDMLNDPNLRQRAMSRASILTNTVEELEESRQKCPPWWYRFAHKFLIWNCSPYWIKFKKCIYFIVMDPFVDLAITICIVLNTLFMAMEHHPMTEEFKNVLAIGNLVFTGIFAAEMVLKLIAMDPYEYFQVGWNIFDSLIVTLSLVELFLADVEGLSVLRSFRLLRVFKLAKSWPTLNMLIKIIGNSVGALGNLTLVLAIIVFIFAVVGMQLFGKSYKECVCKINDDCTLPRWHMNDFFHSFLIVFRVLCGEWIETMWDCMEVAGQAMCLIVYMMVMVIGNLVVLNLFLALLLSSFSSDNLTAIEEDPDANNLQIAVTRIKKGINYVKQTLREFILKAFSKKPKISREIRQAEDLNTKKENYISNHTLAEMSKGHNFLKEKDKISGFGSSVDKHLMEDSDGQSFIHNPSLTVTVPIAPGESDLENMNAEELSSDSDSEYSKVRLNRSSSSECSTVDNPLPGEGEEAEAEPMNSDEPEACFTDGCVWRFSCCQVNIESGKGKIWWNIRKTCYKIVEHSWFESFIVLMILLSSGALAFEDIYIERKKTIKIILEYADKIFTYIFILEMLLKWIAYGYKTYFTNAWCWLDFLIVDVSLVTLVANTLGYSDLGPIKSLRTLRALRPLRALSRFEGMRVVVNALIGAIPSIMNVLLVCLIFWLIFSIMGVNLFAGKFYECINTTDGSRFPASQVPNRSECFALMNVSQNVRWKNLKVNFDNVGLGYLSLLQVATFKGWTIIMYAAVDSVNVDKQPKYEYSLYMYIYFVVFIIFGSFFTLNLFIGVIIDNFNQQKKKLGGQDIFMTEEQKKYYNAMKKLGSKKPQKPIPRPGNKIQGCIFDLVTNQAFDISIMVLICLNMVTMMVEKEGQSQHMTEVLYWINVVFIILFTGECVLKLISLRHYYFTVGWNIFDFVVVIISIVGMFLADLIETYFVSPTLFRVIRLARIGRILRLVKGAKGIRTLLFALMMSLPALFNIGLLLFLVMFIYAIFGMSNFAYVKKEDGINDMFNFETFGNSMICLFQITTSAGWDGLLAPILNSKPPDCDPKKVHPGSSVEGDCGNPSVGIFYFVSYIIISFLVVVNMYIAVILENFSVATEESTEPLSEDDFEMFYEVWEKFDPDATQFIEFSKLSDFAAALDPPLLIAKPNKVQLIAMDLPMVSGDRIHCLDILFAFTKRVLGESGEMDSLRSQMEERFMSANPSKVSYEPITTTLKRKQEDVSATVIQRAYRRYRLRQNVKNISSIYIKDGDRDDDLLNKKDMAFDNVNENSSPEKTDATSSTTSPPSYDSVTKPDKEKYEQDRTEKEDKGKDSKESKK

The first assay deals with recombinant human Nav1.7 (Homo sapiens (Human), UniProt Q15858). The assay is described as follows: FRET-based membrane potential assay, recombinant human sodium channel Nav1.7. The class given is cell-based. To be noted: FRET-Membrane Potential Nav1.7 IC50. An outline of the steps:
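Channel activation used veratridine at its EC80, set by a dilution curve each experiment, together with Leiurus scorpion venom, added 3 min after compound. Membrane-potential ratio signals from FLIPR Tetra in HEPES-buffered HBSS were fitted to a four-parameter Hill equation for percent inhibition and IC50.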
With `O=C(N[C@H]1C[C@H](O)C1)c1ccc2cc(Oc3ccc(C(F)(F)F)cn3)ccc2n1` [Example 302, N-(trans-3-hydroxycyclobutyl)-6-{[5-(trifluoromethyl)pyridin-2-yl]oxy}quinoline-2-carboxamide], the 50% inhibitory concentration (IC50) came to 3.49 µM.

The same assay, now with this note: HEK293 cells stably expressing recombinant human Nav1.7; veratridine + scorpion venom depolarization; read-out: FRET-Membrane Potential Nav1.7 IC50.
As to `O=C(c1ccc2cc(Oc3ccc(C(F)(F)F)cn3)ccc2n1)N1CCC12CNC2` [Example 279, 1,6-diazaspiro[3.3]hept-1-yl(6-{[5-(trifluoromethyl)pyridin-2-yl]oxy}quinolin-2-yl)methanone], the IC50 was 5.68 µM. The same measure, in the same setting: the value for `O=C(c1ccc2cc(Oc3ccc(C(F)(F)F)cn3)ccc2n1)N1C[C@@H]2CCN[C@@H]2C1` [Example 280, (3 aS,6aS)-hexahydropyrrolo[3,4-b]pyrrol-5(1H)-yl(6-{[5-(trifluoromethyl)pyridin-2-yl]oxy}quinolin-2-yl)methanone] was 0.605 µM; that for `O=C(NN1CCOCC1)c1ccc2cc(Oc3ccc(C(F)(F)F)cn3)ccc2n1` [Example 281, N-(morpholin-4-yl)-6-{[5-(trifluoromethyl)pyridin-2-yl]oxy}quinoline-2-carboxamide] was 1.28 µM; that for `O=C(c1ccc2cc(Oc3ccc(C(F)(F)F)cn3)ccc2n1)N1CC[C@@H](O)C1` [Example 282, [(3R)-3-hydroxypyrrolidin-1-yl](6-{[5-(trifluoromethyl)pyridin-2-yl]oxy}quinolin-2-yl)methanone] was 8.52 µM. On the same count and under the same terms, with `O=C(c1ccc2cc(Oc3ccc(C(F)(F)F)cn3)ccc2n1)N1CC[C@H](O)C1` [Example 283, [(3S)-3-hydroxypyrrolidin-1-yl](6-{[5-(trifluoromethyl)pyridin-2-yl]oxy}quinolin-2-yl)methanone] the figure was 10.9 µM. The same measure, in the same setting: the value for `O=C(c1ccc2cc(Oc3ccc(C(F)(F)F)cn3)ccc2n1)N1CCCC(O)CC1` (stereo not drawn) [Example 284, (4-hydroxyazepan-1-yl)(6-{[5-(trifluoromethyl)pyridin-2-yl]oxy}quinolin-2-yl)methanone] was 8.59 µM; that for `CC1(CN2CCN(C(=O)c3ccc4cc(Oc5ccc(C(F)(F)F)cn5)ccc4n3)CC2)COC1` [Example 286, {4-[(3-methyloxetan-3-yl)methyl]piperazin-1-yl}(6-{[5-(trifluoromethyl)pyridin-2-yl]oxy}quinolin-2-yl)methanone] was 11.4 µM; that for `CS(=O)(=O)C1CCN(C(=O)c2ccc3cc(Oc4ccc(C(F)(F)F)cn4)ccc3n2)C1` (stereo not drawn) [Example 287, [3-(methylsulfonyl)pyrrolidin-1-yl](6-{[5-(trifluoromethyl)pyridin-2-yl]oxy}quinolin-2-yl)methanone] was 2.81 µM. As for `O=C(c1ccc2cc(Oc3ccc(C(F)(F)F)cn3)ccc2n1)N1CCN2C(=O)CCC2C1` (stereo not drawn) [Example 288, 2-[(6-{[5-(trifluoromethyl)pyridin-2-yl]oxy}quinolin-2-yl)carbonyl]hexahydropyrrolo[1,2-a]pyrazin-6(2H)-one], the IC50 was 7.88 µM. Still for that read-out and setting: with `CCOC(=O)N1CCN(C(=O)c2ccc3cc(Oc4ccc(C(F)(F)F)cn4)ccc3n2)CC1` [Example 289, ethyl 4-[(6-{[5-(trifluoromethyl)pyridin-2-yl]oxy}quinolin-2-yl)carbonyl]piperazine-1-carboxylate] the figure was 3.91 µM. The same measure, in the same setting: the value for `O=C(c1ccc2cc(Oc3ccc(C(F)(F)F)cn3)ccc2n1)N1CCN(C(=O)C2CC2)CC1` [Example 290, cyclopropyl{4-[(6-{[5-(trifluoromethyl)pyridin-2-yl]oxy}quinolin-2-yl)carbonyl]piperazin-1-yl}methanone] was 9.86 µM; that for `O=C(c1ccc2cc(Oc3ccc(C(F)(F)F)cn3)ccc2n1)N1CCN(C2CCCCC2)CC1` [Example 291, (4-cyclohexylpiperazin-1-yl)(6-{[5-(trifluoromethyl)pyridin-2-yl]oxy}quinolin-2-yl)methanone] was 13.7 µM; that for `O=C(c1ccc2cc(Oc3ccc(C(F)(F)F)cn3)ccc2n1)N1CC(O)C(F)C1` (stereo not drawn) [Example 292, (3-fluoro-4-hydroxypyrrolidin-1-yl)(6-{[5-(trifluoromethyl)pyridin-2-yl]oxy}quinolin-2-yl)methanone] was 3.26 µM. On the same count and under the same terms, the value for `CC(C)COC(=O)N1CCN(C(=O)c2ccc3cc(Oc4ccc(C(F)(F)F)cn4)ccc3n2)CC1` [Example 293, isobutyl 4-[(6-{[5-(trifluoromethyl)pyridin-2-yl]oxy}quinolin-2-yl)carbonyl]piperazine-1-carboxylate] was 3.32 µM. Regarding `CCN1CCN(C(=O)c2ccc3cc(Oc4ccc(C(F)(F)F)cn4)ccc3n2)CC1` [Example 294, (4-ethylpiperazin-1-yl)(6-{[5-(trifluoromethyl)pyridin-2-yl]oxy}quinolin-2-yl)methanone], the IC50 was found to be 1.4 µM. The same measure, in the same setting: the value for `O=C(c1ccc2cc(Oc3ccc(C(F)(F)F)cn3)ccc2n1)N1CCCCC1` [Example 297, piperidin-1-yl(6-{[5-(trifluoromethyl)pyridin-2-yl]oxy}quinolin-2-yl)methanone] was 7.99 µM; that for `O=C(c1ccc2cc(Oc3ccc(C(F)(F)F)cn3)ccc2n1)N1CCN(CC(F)F)CC1` [Example 298, [4-(2,2-difluoroethyl)piperazin-1-yl](6-{[5-(trifluoromethyl)pyridin-2-yl]oxy}quinolin-2-yl)methanone] was 12.3 µM. Still for that read-out and setting: the value for `O=C(c1ccc2cc(Oc3ccc(C(F)(F)F)cn3)ccc2n1)N1CCN(C(=O)N2CCOCC2)CC1` [Example 299, morpholin-4-yl{4-[(6-{[5-(trifluoromethyl)pyridin-2-yl]oxy}quinolin-2-yl)carbonyl]piperazin-1-yl}methanone] was above 20 µM; that for `O=C(c1ccc2cc(Oc3ccc(C(F)(F)F)cn3)ccc2n1)N1C[C@H](O)C[C@H]1CO` [Example 300, [(2S,4R)-4-hydroxy-2-(hydroxymethyl)pyrrolidin-1-yl](6-{[5-(trifluoromethyl)pyridin-2-yl]oxy}quinolin-2-yl)methanone] was above 20 µM; that for `O=C(c1ccc2cc(Oc3ccc(C(F)(F)F)cn3)ccc2n1)N1CC[C@H](O)[C@H]1CO` [Example 304, [(2R,3S)-3-hydroxy-2-(hydroxymethyl)pyrrolidin-1-yl](6-{[5-(trifluoromethyl)pyridin-2-yl]oxy}quinolin-2-yl)methanone] was above 20 µM. On the same count and under the same terms, the value for `O=C(c1ccc2cc(Oc3ccc(C(F)(F)F)cn3)ccc2n1)N1C[C@H](CO)C[C@H](CO)C1` [Example 307, [cis-3,5-bis(hydroxymethyl)piperidin-1-yl](6-{[5-(trifluoromethyl)pyridin-2-yl]oxy}quinolin-2-yl)methanone] was 14.6 µM; that for `O=C(c1ccc2cc(Oc3ccc(C(F)(F)F)cn3)ccc2n1)N1CCN(Cc2ccccn2)CC1` [Example 308, [4-(pyridin-2-ylmethyl)piperazin-1-yl](6-{[5-(trifluoromethyl)pyridin-2-yl]oxy}quinolin-2-yl)methanone] was 3.07 µM.

As to `CC(C)(C)CC(=O)N1CCN(C(=O)c2ccc3cc(Oc4ccc(C(F)(F)F)cn4)ccc3n2)CC1` [Example 309, 3,3-dimethyl-1-{4-[(6-{[5-(trifluoromethyl)pyridin-2-yl]oxy}quinolin-2-yl)carbonyl]piperazin-1-yl}butan-1-one], the IC50 came out at 3.57 µM.

Consider `N[C@@H]1CCN(C(=O)c2ccc3cc(Oc4ccc(C(F)(F)F)cn4)ccc3n2)C1` [Example 310, [(3R)-3-aminopyrrolidin-1-yl](6-{[5-(trifluoromethyl)pyridin-2-yl]oxy}quinolin-2-yl)methanone], for which the IC50 was found to be 0.665 µM. On the same count and under the same terms, the value for `O=C(c1ccc2cc(Oc3ccc(C(F)(F)F)cn3)ccc2n1)N1CCCC(F)(F)C1` [Example 312, (3,3-difluoropiperidin-1-yl)(6-{[5-(trifluoromethyl)pyridin-2-yl]oxy}quinolin-2-yl)methanone] was 6.93 µM. The same measure, in the same setting: the value for `O=C(c1ccc2cc(Oc3ccc(C(F)(F)F)cn3)ccc2n1)N1CCC[C@@]12CC[C@H](O)C2` [Example 313, [(5S,7S)-7-hydroxy-1-azaspiro[4.4]non-1-yl](6-{[5-(trifluoromethyl)pyridin-2-yl]oxy}quinolin-2-yl)methanone] was 14 µM. The same measure, in the same setting: the value for `O=C(c1ccc2cc(Oc3ccc(C(F)(F)F)cn3)ccc2n1)N1CCN(Cc2cocn2)CC1` [Example 315, [4-(1,3-oxazol-4-ylmethyl)piperazin-1-yl](6-{[5-(trifluoromethyl)pyridin-2-yl]oxy}quinolin-2-yl)methanone] was 6.12 µM.

Still in this assay, the particulars now being: read-out: FRET-Membrane Potential Nav1.7 IC50.
On to `O=C(NC1CS(=O)(=O)CC1O)c1ccc2cc(Oc3ccc(C(F)(F)F)cn3)ccc2n1` (stereo not drawn) [Example 285, N-(4-hydroxy-1,1-dioxidotetrahydrothiophen-3-yl)-6-{[5-(trifluoromethyl)pyridin-2-yl]oxy}quinoline-2-carboxamide], for which the 50% inhibitory concentration (IC50) was found to be 0.774 µM. On the same count and under the same terms, with `O=C(c1ccc2cc(Oc3ncc(C(F)(F)F)cc3Br)ccc2n1)N1CCNCC1` [Example 295, (6-{[3-bromo-5-(trifluoromethyl)pyridin-2-yl]oxy}quinolin-2-yl)(piperazin-1-yl)methanone] the figure was 3.2 µM; with `O=C(c1ccc2cc(Oc3ccc(C(F)(F)F)cn3)ccc2n1)N1CCOCC1` [Example 296, morpholin-4-yl(6-{[5-(trifluoromethyl)pyridin-2-yl]oxy}quinolin-2-yl)methanone], 12.4 µM. The same measure, in the same setting: with `O=C(c1ccc2cc(Oc3ccc(C(F)(F)F)cn3)ccc2n1)N1CCN(CCC(F)(F)F)CC1` [Example 311, (6-{[5-(trifluoromethyl)pyridin-2-yl]oxy}quinolin-2-yl)[4-(3,3,3-trifluoropropyl)piperazin-1-yl]methanone] the figure was 3.11 µM; with `O=C(c1ccc2cc(Oc3ccc(C(F)(F)F)cn3)ccc2n1)N1CCC(N2CCC2)C1` (stereo not drawn) [Example 314, [3-(azetidin-1-yl)pyrrolidin-1-yl](6-{[5-(trifluoromethyl)pyridin-2-yl]oxy}quinolin-2-yl)methanone], 0.218 µM.

The record behind these values is patent US9452986B2, “6-heteroaryloxy- or 6-aryloxy-quinoline-2-carboxamides and method of use” (AbbVie Inc., priority 2014, dated 2016).
